Patent US20160022760A1, “METHODS OF TREATING CELIAC DISEASE WITH LARAZOTIDE” (priority 2014, published 2016)
Where no end group is shown, it is not given here.

Key:
[1] = system: anti-deamidated gliadin peptide (anti-DGP IgA and IgG); conditions: MITT
From the text: (§1) Blood was collected for determination of serum anti-tTG (IgA and IgG) and anti-DGP (IgA and IgG) at the timings specified in Table 2.
(§2) Anti-tTG (IgA and IgG) and anti-DGP (IgA and IgG), and change from baseline (Week 0) to Visit 4 (Week 4), End of Treatment Visit 6 (Week 12), and End of Study Visit 7 (Week 16) were summarized descriptively. Week 0 served as baseline.

[2] = system: anti-tissue transglutaminase (anti-tTG IgA and IgG); conditions: each treatment group, MITT
From the text: as §1, §2

[3] = Phase IIb study: vital signs, BMI and body weight; format: in vivo, human
Description: Body weight was measured and BMI was calculated based upon screening height and weight at the timings specified in Table 2.
The Investigator or designee obtained vital signs including temperature, blood pressure (sitting), and pulse at screening and all study visits.
For continuous variables, changes from baseline to each time point were summarized with the number of nonmissing values, mean, standard deviation, median, and minimum and maximum values. For categorical variables, subject counts and percentages were provided. Results of ECGs were classified as normal; abnormal, not clinically significant, and abnormal, clinically significant, as specified on the ECG page of the eCRF. Summaries were presented by treatment group.

[4] = system: celiac disease; conditions: cited from earlier work

In the case of “GGVLVQPG (SEQ ID NO:1) [Larazotide acetate]”, the “Anti-DGP (IgA and IgG) antibody titers versus placebo, in words” value ([1]; any Larazotide acetate group) is reported as “no clinically meaningful post baseline differences”, the “Average anti-DGP antibody titers (IgA) over the study, in words” value ([1]; each treatment group) is reported as “remained relatively unchanged” and the “Average anti-tTG antibody titers (IgA) over the study, in words” value [2] is reported as “remained relatively unchanged”. The “Average anti-tTG antibody titers (IgA)” value ([2]; throughout the study) was < 10 units, the “Mean change from baseline in BMI (range)” value ([3]; 0.5, 1 and 2 mg groups, Week 4, Week 8, end of treatment, end of follow-up, placebo −0.1 to −0.3) was 0 to 0.2 kg/m^2 and the “Mean change from baseline in body weight (range)” value ([3]; 0.5, 1 and 2 mg groups, placebo −0.2 to −0.8) was -0.1 to 0.5 kg. For the same sequence, the “Mean changes from baseline in vital sign variables versus placebo, in words” value ([3]; systolic and diastolic blood pressure, pulse rate, body temperature) was “No clinically meaningful differences”, the “Safety profile in previous clinical studies, in words” value ([4]; 0.25 mg to 8 mg TID and up to 36 mg in a single dose) was “acceptable safety profile” and the “Efficacy of lower doses in previous studies, in words” value ([4]; lower doses 0.25 mg and 1 mg versus 4 mg or 8 mg) was “more effective compared to placebo than higher doses of 4 mg or 8 mg”.
